Results published in patent publication US4513008A, “Virucidal compositions and therapy” (The Vinoxen Company, Inc., priority 1982, dated 1985).

Legend:
[1] = Guinea pig toxicity controls (sham-infected, topical treatment); format: in vivo, guinea pigs; details: B: 5% w/w ACV in PEG-1000
Method: (§1) Drugs. The substances tested consisted of four bottles labelled "A", "B", "C", and "D" with no identifying key. The samples were: A, 0.1 mg/ml DHA (0.003 mmol/ml); B, 5% w/w ACV (0.22 mmol/ml); C, 1 mg/ml DHA (0.03 mmol/ml); and D, 10 mg/ml DHA ([…]). […] All were treated as light-sensitive compounds.
(§2) Experimental Protocol. The guinea pigs were infected by applying a virus-soaked swab intravaginally, with agitation, for 20 seconds. Toxicity control animals were similar pretreated using swabs soaked in sterile Puck's balanced salt solution. Treatment began 20 hr later, with the compound or placebo applied topically intravaginally, perivaginally, and perianally using cotton swabs soaked in the respective substance. Treatment continued three times daily (8 a.m., noon, 4 p.m.) for 7 days. Ten infected animals were used for each coded substance, with twenty used for virus controls. Five sham-infected animals were concomitantly treated with each coded substance to serve as toxicity controls. Two guinea pigs were held separately to serve as normal untreated controls.
(§3) Each animal was observed daily for survival for a total of 28 days. On days 5 through 8 post-virus inoculation, the genital area was carefully examined and signs of irritation in the toxicity controls and lesion severity in injected animals was scored on a 0 to 4 scale using the same scale as in the mouse bioassay. The results were scored as average daily lesion (ADL) scores for each group, and as mean vaginal lesion (MVL) scores, calculated as the mean of the ADL scores for days 5-8. The maximum mean score for the toxicity control animals was also determined.

herpes virus type 2 = assay: Guinea pig bioassay: intravaginal HSV-2 infection, topical treatment; format: in vivo; parameters: key to MVL Score Day 5 / MVL Score Day 6 / MVL Score Day 7 / MVL Score Day: lesion severity scored on 0 to 4 scale
Method: In both studies, DHA was compared with ACV in a controlled study for effectiveness in reducing the occurrence and the severity of lesions resulting from infection by HSV-2 and in reducing mortality resulting from the virus infection.
Using substantially the procedures of Pancic et al., loc. cit., the topical activity of DHA, a representative and preferred virucide for use in the present method, was evaluated in mice and in guinea pigs. Both evaluations included comparative testing against ACV and the mouse tests included a comparison of two different vehicles.
A blind comparative test was carried out on guinea pigs using coded substances labeled A through D. The testers were told only that one of the four substances was ACV, that the other three coded samples were the same material, in concentrations of 0.1, 1.0 and 10 mg/ml, and that all four samples were formulated in a polyethylene glycol 1000 (PEG-1000) vehicle. A separate sample of the PEG-1000 was also submitted to serve as a placebo for treating virus control animals. The materials and experimental protocol is shown below.
Animals. Female Hartley strain albino guinea pigs weighing about 450-500 g were used. The animals were quarantined 24 hr prior to use in this study, and maintained 5 to a 32"×32"×9" stainless steel cage on Wayne guinea pig diet and water ad libitum.
Virus. Strain E194 of herpes virus type 2 was used. […] The virus was held at -90° C. until used.
as §1
as §2, with “Toxicity control animals were similar pretreated using swabs soaked in sterile Puck's balanced salt solution.” left out
as §3, with “On” for “Each animal was observed daily for survival for a total of 28 days. On”
On day 6 prior to the 8 a.m. treatment, intravaginal and perivaginal areas of each infected guinea pig were uniformly swabbed with sterile cotton swabs. The swab for each animal was placed in 1.0 ml of sterile Eagles minimum essential medium and immediately frozen at -90° C.; several days later all were thawed and each swab-containing sample vortexed for 15 seconds and then the sample was diluted through a series of 10-fold dilutions in sterile medium. Each dilution was assayed for virus in triplicate by adding 0.1 ml to an established monolayer of MA-104 cells in 96-well disposable plastic microplates. The plates were sealed, incubated at 72 hr at 37° C., and virus-induced cytopathic effect noted microscopically.
Data Analysis. Increases in survivors were analyzed using chi square analysis with Yate's correction. Mean survival times (MST) of animals dying on or before […] were determined for each group, and evaluated using the t test.

HSV-2 = assay: In vivo mouse bioassay: intravaginal HSV-2 infection, topical treatment; parameters: species or system HSV-2 strain 333 in female Swiss Webster mice; key to Max. Lesion Score: 0: no clinical signs of vaginal infection; ±: slight perivaginal redness; perivaginal redness and swelling of 1-2 mm; perivaginal redness and swelling of 2-3 mm; perivaginal and perianal redness and swelling of 3-4 mm; perivaginal and perianal redness and swelling of 4 mm or more, with exudate; details: for # Infected, Day 14 / # of Deaths, Day 14: 10 animals/group
[2] = tested on: gram-positive and gram-negative microorganisms; details: cited from earlier work
PR4 bacteriophage = PR4 bacteriophage in vitro; cited from earlier work
bacteriophage = details: cited from earlier work
[3] = tested on: herpes simplex virus type 2 (HSV-2); assay: In vitro HSV-2 bioassay: virucidal plaque assay (HEP-2 cells); format: cell-based, HSV-2 strain 333; details: for plaque count: TNTC = too numerous to count
Method: Evidence of the efficacy of the virucides of the invention in vitro has been obtained from bioassay using HSV-2, using a standard assay procedure. Serial dilutions of the compounds were tested for their ability to prevent plaque formation by a stock virus suspension. Reduction of plaque titer by test compounds as compared to mock treated controls was indicative of virucidal activity. […] These represent the upper limit for the drug concentration, since dilutions were not carried beyond 1:6400 and in some cases 1:12800.
Cell Culture. Cell cultures used for the propagation and titration of HSV-2 were the human diploid lung embryonic line MRC-5 and the human malignant epitheloid cell line HEP-2 respectively. Stock monolayer cultures of both cell lines were propagated in Dulbecco's Modified Eagle's medium (DME) supplemented with 10% (V/V) calf serum. Spinner cultures for mass production of HEP-2 cells were grown in Joklik's medium supplemented with 10% (V/V) calf serum and 1% (W/V) pluronic acid. Monolayer cultures of HEP-2 cells for plaque or virucidal assay were seeded into 60 mm dishes in DME supplemented with 10% calf serum and antibiotics. Stock cultures were maintained in antibiotic free medium.
Herpes simplex virus, type 2 (HSV-2) strain 333 was obtained from Dr. John Hughes of the Dept. of Medical Microbiology, College of Medicine, The Ohio State University. Stocks of HSV-2 were prepared in the human diploid embryonic lung cell line, MRC-5. Confluent MRC-5 monolayer cultures in T-75 plastic flasks were washed one time with Hank's and Balanced Salt solution (HBSS) and infected with 0.5 ml of HSV-2, strain 333 stock. Virus was adsorbed for 1 hour at 37° C. Then the culture was refed with 15 ml of DME supplemented with 1% (V/V) calf serum. Virus was harvested 48 hours later when cytopathology was complete. Cultures were frozen and thawed rapidly three times to release cell associated virus, clarified by centrifugation at 10,000×g for 15 minutes at 4° C., aliquoted into 5 ml lots and frozen at -70° C. One lot was taken for virus titration.
HSV-2 was titrated by plaque assay in HEP-2 cells under a semi-solid methyl cellulose overlay. Tenfold serial dilutions of virus were prepared in HBSS and 0.3 ml aliquots of each dilution inoculated onto triplicate HEP-2 cell monolayers in 60 mm plastic petri dishes. Adsorption of virus was for 1 hour at 37° C. Plates were then overlayed with 5 ml of a 1:1 mixture of 2×DME supplemented with 2% (V/V) calf serum and 3% (W/V) methyl cellulose to give a final 1×DME supplemented with 1% calf serum and 1.5% methylcellulose. Infected plates were incubated at 37° C. in a humidified 10% CO2 atmosphere for 48 hours. Virus plaques were visualized by staining with crystal violet and counted under a dissecting microscope. Virus titers were calculated from the plaque numbers by averaging the plaque count and multiplying by 3.3 (0.3 ml plates).
The following procedure was employed to assay virucidal activity in various test samples. Compounds were received as a solution in DMSO and were serially diluted in HBSS as described for each experiment. For the test, 1 ml of each dilution was mixed with 1 ml of a stock virus suspension diluted to approximately 9×10^3 plaque forming units (P.F.U.)/ml. This test mixture was incubated at 25° C. for 30 minutes, then inoculated onto a cell culture (HEP-2) for plaque assay as described previously. Mock treated (virus plus HBSS) controls were included with each test. Any reduction of plaque titer by test compounds as compared to the mock treated control was indicative of virucidal activity.
Samples from RP-HPLC fractionation of the CLOH, produced according to Example 2, as well as purified samples of palmitic, myristic and oleic acids and Vitamin D2, were tested for HSV-2 bioactivity. […] Pure oleic acid was not active in this assay, nor were palmitic and myristic acids and Vitamin D2. […]

virus = details: cited from earlier work

## Nc1nc2c(ncn2COCCO)c(=O)[nH]1 [Acyclovir, 9-(2-hydroxyethoxymethyl)guanine, reference compound]
[1]
  Toxicity Controls Surv/Total: 5/5
[1]; 0 to 4 scale
  Toxicity Controls Max. Irrit. Score: 0.0
Herpes virus type 2; B: 5% w/w ACV in PEG-1000
  MVL Score Day 5: 1.8
  MVL Score Day 7: 3.4
Herpes virus type 2; B: 5% w/w ACV in PEG-1000, 0 to 4 scale
  MVL Scores Days 5-8: 2.8
Herpes virus type 2; B: 5% w/w ACV in PEG-1000, 28 days
  Infected, Treated Surv/Total: 5/10
Herpes virus type 2; B: 5% w/w ACV in PEG-1000, P < 0.05
  MVL Score Day 6: 2.3
Herpes virus type 2; B: 5% w/w ACV in PEG-1000, last day
  MVL Score Day: 3.3
Herpes virus type 2; guinea pigs, topical
  reduction in lesion scores, in words: neither ACV nor the lowest dosage of DHA were able to achieve a statistically significant reduction in lesion scores
HSV-2; ACV 5% wt/vol in DMSO
  Max. Lesion Score: ±
  # Infected, Day 14: 3
  # of Deaths, Day 14: 0
HSV-2; ACV 5% wt/vol in PEG
  Max. Lesion Score: ±
  # Infected, Day 14: 4
  # of Deaths, Day 14: 0
HSV-2; DMSO & Acyclovir (5%)
  % Mortality: 0%
  Day of Maximum % Morbidity: 7 days
  Maximum % Morbidity: 30%
  Mean Day of Death: > 14 days
HSV-2; Ointment & Acyclovir (5%)
  % Mortality: 0%
  Day of Maximum % Morbidity: 7 days
  Maximum % Morbidity: 40%
  Mean Day of Death: > 14 days
HSV-2; both carrier vehicles, observed 14 day period
  survival rate: 100%
HSV-2; topical, HSV-2 infected mice
  efficacy in mice in words: effective in minimizing the clinical signs of infection in either carrier vehicle

## CCCCC/C=C\C/C=C\C/C=C\C/C=C\CCCC(=O)O [Arachidonic acid]
[2]
  inhibition of growth of microorganisms, in words: not inhibitory at the concentrations tested
PR4 bacteriophage
  inhibition of viral replication, in words: moderately effective, but less effective than linolenic acid

## CCCCCCCC/C=C\CCCCCCCC(=O)O [Oleic acid, reference compound]
bacteriophage
  inactivation of virus (virucidal activity), in words: most effective fatty acid tested
PR4 bacteriophage
  inhibition of viral replication, in words: most effective
[3]; Table 1, dilution 1:10
  plaque count: 36
[3]; Table 1, dilution 1:10, controls 2.6 × 10^4 (a), 1.3 × 10^4 (b)
  titer: 1.2 × 10^2
[3]; Table 1, dilution 1:100
  plaque count: TNTC
[3]; Table 1, dilution 1:200
  plaque count: TNTC
[3]; Table 1, dilution 1:400
  plaque count: TNTC
[3]; Table 1, dilution 1:800
  plaque count: TNTC
[3]; Table 1, dilution 1:1600
  plaque count: TNTC
[3]; Table 1, dilution 1:3200
  plaque count: TNTC
[3]; Table 1, dilution 1:6400
  plaque count: TNTC
[3]; in vitro bioassay
  virucidal activity against HSV-2 in words: not active

## CCCCCC=CCC=CCC=CCCCCCO [gamma-linolenyl alcohol, 6,9,12-octadecatrien-1-ol]
virus
  antiviral activity in vitro, in words: most active

## CCCCCC/C=C\CCCCCCCC(=O)O [palmitoleic acid]
PR4 bacteriophage
  inhibition of viral replication, in words: most effective
